Data set [1] in a line: WST-1 cell survival/proliferation assay on human cardiomyocytes. To be noted: Human Cardiac Myocyte. Type of data set: cell-based. The protocol: WST-1 cell survival/proliferation assay (Roche Diagnostic ref No 1644807) was performed on both primary human adult cardiomyocytes and rat neonatal cardiac myocytes.
Human cardiomyocytes were isolated from normal human ventricle tissue of the adult heart and were able to proliferate for a number of passage. Neonatal ventricular Clonetics® Rat Cardiac Myocytes (P1-3) retained their contractile property and were electrophysiologically active in culture. 1.10^4 primary rat cells or 2-2.5 10^4 adult human cells were plated per well of a 96 wells plates. The cells were allowed to adhere to the plates for 5 days before drug treatment. Treatment was initiated by addition of a 2× drug solution of ½ serial dilutions ranging from 0 to 10 μM. Cells were grown for 48 h at 37° C. and then incubated with 10 μl/well of WST-1 reagent for 4 h at 37° C. The amount of formazan dye formed was quantified by its absorbance at 450 nm using a scanning multiwell spectrophotometer (MultiSkan MS, Thermo-LabSystems, France). A blank well without cells was used as a background control for the spectrophotometer and all assays were performed in triplicate.

The test system of data set [2] is Murine bone marrow mast cells (BMMCs). As to the kind of experiment: IgE-mediated mast cell degranulation assay (β-hexosaminidase release). Type of data set: cell-based, C57BL/6J mice. To be noted: Mus musculus, BMMC. The protocol: In vitro mast cell degranulation assay monitored by released of β-hexosaminidase. Murine bone marrow mast cells (BMMCs) are obtained by flushing bone marrow cells from the femurs of C57BL/6J mice, then cultured for 3-4 weeks in RPMI containing mouse recombinant IL-3 (30 ng/ml). RBL-2H3 is a rat basophile cell line maintained in monolayer culture in EMEM supplemented with 20% FCS, 1 mM Glutamine and 1× antibiotics. Cells were sensitized overnight with 0.2 μg/ml anti-DNP-IgE (Sigma-Aldrich D8406). […] After incubation 90 min at 37° C., the reaction was quenched by addition of 100 μl of sodium carbonate buffer (0.1M Na2CO3/NaHCO3 pH 10.0). β-hexosaminidase activity was quantified by reading plate absorbance at 405 nm with reference at 620 nm using a PolarSTAR reader plate (BMG labech).
The activity of anti-SYK compounds was tested in an IgE-mediated mast cell degranulation assay. SYK has been identified to be critical for the initiation of mast cell mediator release following the aggregation of FcεRI.

Another data set concerns the target TEL-SYK (Homo sapiens, UniProt P43405). Nature of the data set: Cell-based proliferation assay on BaF3 model, TEL-SYK. The method, then: Cell-based proliferation and viability assay CellTiter-Bleue cell-based survival/proliferation assay (Promega G8080) was performed on BaF3 models.
A total of 1.10^4 cells/well/50 μl were seeded in a 96-wells plate. Treatment was initiated by addition of a 2× drug solution of ½ serial dilutions ranging from 0 to 10 μM. Cells were grown for 48-72 h at 37° C. and then incubated with 10 μl/well of Promega CellTiter-Bleue reagent for 4 h at 37° C. The amount of formazan dye formed was quantified by its absorbance at 450 nm using a scanning multiwell spectrophotometer (POLARstar Omega, BMG labtech, France). A blank well without cells was used as a background control for the spectrophotometer and all assays were performed in duplicates and the experiments were repeated at least twice.

The next data set has as its target hERG (Homo sapiens (Human), UniProt Q12809). As to the kind of experiment: Predictor hERG Fluorescence Polarization binding assay. To be noted: 100% = E-4031.
For another data set, the system named is murine model of asthma. As to the kind of experiment: Mouse model of asthma: airway responsiveness (FlexiVent). To be noted: ovalbumin-sensitized mice, PO twice daily. Type of data set: in vivo, Balb/c male mice. The protocol:
Balb/c male mice, 8 weeks old, were purchased from Janvier (Le Genest-Saint-Isle; FRANCE) and bred in the animal facility for 4 weeks. Drugs were dissolved in drinking solvent (80% water; 10% Tween 80 and 10% isopropanediol). It was aliquoted and stored at −20° C. Each mouse received drugs twice a day. The weight of animals was calculated before and after treatment.
Mice, 9 weeks of age, were sensitized with 50 μg of ovalbumin (Sigma-Aldrich, Germany) adsorbed to 2 mg Al(OH)3 (Prolabo, France) and diluted in physiological saline (0.9% NaCl). Ovalbumin was injected intraperitoneally on days 1 and 7. Sensitization was followed by intranasal challenges with 10 μg of ovalbumin diluted in 0.9% NaCl, each day from day 18 to day 21. On days 17 to 21, animals treated with drugs received 100 μl of a solution at 15 mg/ml, at 7.5 mg/ml or at 3.75 mg/ml administered per os twice a day during 5 days. These treatments corresponded to concentration of 60 mg/mouse kg, 30 mg/mouse kg and 15 mg/mouse kg respectively.
The airway responsiveness was measured using the invasiveness FlexiVent® (SCIREQ) technique. […] The baseline values were measured after saline solution nebulization and airway hyperresponsiveness evaluated after nebulization of a 0.26M metacholine solution (50 mg/ml).

Like-named read-outs stand apart in the source and are kept apart here.

Chain of hERG (Q12809 whole entry): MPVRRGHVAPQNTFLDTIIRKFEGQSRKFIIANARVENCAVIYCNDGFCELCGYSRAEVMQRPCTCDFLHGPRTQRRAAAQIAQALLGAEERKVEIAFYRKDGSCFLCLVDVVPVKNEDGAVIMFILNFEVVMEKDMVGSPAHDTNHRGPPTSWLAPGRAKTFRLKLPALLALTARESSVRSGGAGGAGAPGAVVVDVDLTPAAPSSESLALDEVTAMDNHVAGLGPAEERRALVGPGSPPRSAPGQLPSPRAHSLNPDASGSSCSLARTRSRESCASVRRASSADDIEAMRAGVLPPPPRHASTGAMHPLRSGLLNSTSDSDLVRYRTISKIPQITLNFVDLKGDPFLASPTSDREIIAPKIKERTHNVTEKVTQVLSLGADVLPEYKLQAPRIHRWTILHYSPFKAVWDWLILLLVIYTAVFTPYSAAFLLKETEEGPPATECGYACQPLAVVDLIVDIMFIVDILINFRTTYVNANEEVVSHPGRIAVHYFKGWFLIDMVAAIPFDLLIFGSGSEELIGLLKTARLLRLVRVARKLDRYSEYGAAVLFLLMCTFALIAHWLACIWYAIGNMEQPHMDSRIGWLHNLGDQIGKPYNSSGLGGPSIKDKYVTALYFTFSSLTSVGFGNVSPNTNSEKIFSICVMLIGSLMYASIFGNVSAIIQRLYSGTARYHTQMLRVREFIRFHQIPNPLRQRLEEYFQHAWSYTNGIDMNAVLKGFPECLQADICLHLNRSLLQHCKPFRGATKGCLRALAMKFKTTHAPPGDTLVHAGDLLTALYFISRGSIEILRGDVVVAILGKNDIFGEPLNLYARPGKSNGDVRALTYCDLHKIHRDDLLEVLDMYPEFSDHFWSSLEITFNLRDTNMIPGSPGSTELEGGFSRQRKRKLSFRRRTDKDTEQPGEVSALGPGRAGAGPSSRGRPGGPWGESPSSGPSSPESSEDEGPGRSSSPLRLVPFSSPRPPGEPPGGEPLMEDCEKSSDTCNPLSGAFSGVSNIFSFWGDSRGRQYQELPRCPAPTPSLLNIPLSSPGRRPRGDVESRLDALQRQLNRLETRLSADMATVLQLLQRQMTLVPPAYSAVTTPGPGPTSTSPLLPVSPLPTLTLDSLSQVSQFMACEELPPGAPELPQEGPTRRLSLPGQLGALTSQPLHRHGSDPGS
Method for hERG: The activity of the test compounds on the hERG potassium channel was evaluated using a binding assay provided by Invitrogen (Predictor hERG Fluorescence Polarization assay Kit PV5365). The test was performed at a single concentration of 3 μM of drug. […] The data are expressed as a percentage of hERG inhibition, 100% corresponding to the inhibition obtained with E-4031 and 0% with the solvent DMSO (negative control).

On to `Cc1ccnc(Nc2cccc(-c3cnc(N4CCNC(=O)C45CC5)o3)c2)n1` [Compound 001, 4-{5-[3-(4-Methyl-pyrimidin-2-ylamino)-phenyl]-oxazol-2-yl}-4,7-diaza-spiro[2.5]octan-8-one], for which, in data set [1] (48 h, read-out: Drug-induced cytotoxicity IC50, Hu-CM), the half-maximal inhibitory concentration (IC50) at 48 h is 10000 nM. Moreover, the viability at 48 h, 1 µM in data set [1] (primary human adult cardiomyocytes, 1 μM, read-out: % cell viable at 1 μM, Hu-CM) is 14%. Further, the activity at 0.01 µM in data set [2] (0.01 μM, read-out: β-hexosaminidase activity (% control untreated cells)) came out at 88 ± 14%. Further, in data set [2] (0.1 μM, read-out: β-hexosaminidase activity (% control untreated cells)), the activity at 0.1 µM came to 32 ± 9%. For the same compound, in data set [2] (1 μM, read-out: β-hexosaminidase activity (% control untreated cells)), the activity at 1 µM was found to be 3 ± 5%. Moreover, the results for the IC50 (in data set [2] (read-out: inhibiting mast cell degranulation IC50); on TEL-SYK (read-out: Kinase activity profile IC50 Tel-Syk); on TEL-SYK (read-out: TEL-SYK IC50)) were 50 nM, 272 nM and 270 nM, respectively. Also, on hERG, the inhibition at 3 µM was 0%. For the same compound, the bronchial hyper-responsiveness entry in the data set with murine model of asthma is “reduced bronchial hyper-responsiveness in a dose-dependent manner”.

As a reminder, the IC50 is the concentration that inhibits the measured activity by half. The term inhibition denotes the change of the read-out against control, counted positive when it falls.

The values are drawn from US10053455B2, “Diazaspiroalkaneone-substituted oxazole derivatives as spleen tyrosine kinase inhibitors” (AB SCIENCE, priority 2014, dated 2018).
